Experimental data published in patent US7772183B2 (Bristol-Myers Squibb Company, priority 2005, dated 2010).

Columns and labels:
[1] = system: HCV replicon in HUH-7 cells; assay: HCV replicon FRET assay; format: cell-based, Hepatitis C virus (strain 1b); settings: Hepatitis C virus, Huh-7; HCV replicon, for compounds tested; read-out: EC50 Range
Source text: An HCV replicon whole cell system was established as described by Lohmann V, Komer F, Koch J, Herian U, Theilmann L, Bartenschlager R., Science 285(5424):110-3 (1999). This system enabled us to evaluate the effects of our HCV Protease compounds on HCV RNA replication. Briefly, using the HCV strain 1b sequence described in the Lohmann paper (Assession number: AJ238799), an HCV cDNA was synthesized by Operon Technologies, Inc. (Alameda, Calif.), and the full-length replicon was then assembled in plasmid pGem9zf(+) (Promega, Madison, Wis.) using standard molecular biology techniques. The replicon consists of (i) the HCV 5′ UTR fused to the first 12 amino acids of the capsid protein, (ii) the neomycin phosphotransferase gene (neo), (iii) the IRES from encephalomyocarditis virus (EMCV), and (iv) HCV NS3 to NS5B genes and the HCV 3′ UTR. Plasmid DNAs were linearized with Scal and RNA transcripts were synthesized in vitro using the T7 MegaScript transcription kit (Ambion, Austin, Tex.) according to manufacturer's directions. In vitro transcripts of the cDNA were transfected into the human hepatoma cell line, HUH-7. […] Resulting cell lines were characterized for positive and negative strand RNA production and protein production over time.
The HCV replicon FRET assay was developed to monitor the inhibitory effects of compounds described in the disclosure on HCV viral replication. HUH-7 cells, constitutively expressing the HCV replicon, were grown in Dulbecco's Modified Eagle Media (DMEM) (Gibco-BRL) containing 10% Fetal calf serum (FCS) (Sigma) and 1 mg/ml G418 (Gibco-BRL). Cells were seeded the night before (1.5×10^4 cells/well) in 96-well tissue-culture sterile plates. Compound and no compound controls were prepared in DMEM containing 4% FCS, 1:100 Penicillin/Streptomysin (Gibco-BRL), 1:100 L-glutamine and 5% DMSO in the dilution plate (0.5% DMSO final concentration in the assay). Compound/DMSO mixes were added to the cells and incubated for 4 days at 37° C. After 4 days, cells were first assessed for cytotoxicity using alamar Blue (Trek Diagnotstic Systems) for a CC50 reading. The toxicity of compound (CC50) was determined by adding 1/10th volume of alamar Blue to the media incubating the cells. After 4 hours, the fluorescence signal from each well was read, with an excitation wavelength at 530 nm and an emission wavelength of 580 nm, using the Cytofluor Series 4000 (Perspective Biosystems). Plates were then rinsed thoroughly with Phosphate-Buffered Saline (PBS) (3 times 150 μl). The cells were lysed with 25 μl of a lysis assay reagent containing an HCV protease substrate (5× cell Luciferase cell culture lysis reagent (Promega #E153A) diluted to 1× with distilled water, NaCl added to 150 mM final, the FRET peptide substrate (as described for the enzyme assay above) diluted to 10 μM final from a 2 mM stock in 100% DMSO. […]. The plate was then placed into the Cytofluor 4000 instrument which had been set to 340 nm excitation/490 nm emission, automatic mode for 21 cycles and the plate read in a kinetic mode. EC50 determinations were carried out as described for the IC50 determinations.

[2] = molecular target: T1, HCV NS3/4A protease complex, BMS strain (UniProt P27958, species not given/STRAIN_BMS); assay: FRET peptide assay to monitor HCV NS3/4A proteolytic activity (BMS strain); format: biochemical, Hepatitis C virus (genotype 1a); settings: NS3/4A BMS strain; read-out: IC50 Range
T1 construct: said of H77 and J4L6S; fused on or other part: A three-lysine solubilising tail at the C-terminus of NS4A and a His tag (pET21b, Ni-NTA purification)
Source text: HCV NS3 protease complexes, derived from the BMS strain, H77 strain or J4L6S strain, were generated, as described below. These purified recombinant proteins were generated for use in a homogeneous assay (see below) to provide an indication of how effective compounds of the present disclosure would be in inhibiting HCV NS3 proteolytic activity.
Serum from an HCV-infected patient was obtained from Dr. T. Wright, San Francisco Hospital. An engineered full-length cDNA (compliment deoxyribonucleic acid) template of the HCV genome (BMS strain) was constructed from DNA fragments obtained by reverse transcription-PCR (RT-PCR) of serum RNA (ribonucleic acid) and using primers selected on the basis of homology between other genotype 1a strains. From the determination of the entire genome sequence, a genotype 1a was assigned to the HCV isolate according to the classification of Simmonds et al. (See P Simmonds, K A Rose, S Graham, S W Chan, F McOmish, B C Dow, E A Follett, P L Yap and H Marsden, J. Clin. Microbiol., 31(6), 1493-1503 (1993)). […] The infectious clones, H77 (1a genotype) and J4L6S (1b genotype) were obtained from R. Purcell (NIH) and the sequences are published in Genbank (AAB67036, see Yanagi, M., Purcell, R. H., Emerson, S. U. and Bukh, J. Proc. Natl. Acad. Sci. U.S.A. 94(16), 8738-8743 (1997); AF054247, see Yanagi, M., St Claire, M., Shapiro, M., Emerson, S. U., Purcell, R. H. and Bukh, J, Virology 244 (1), 161-172. (1998)).
The H77 and J4L6S strains were used for production of recombinant NS3/4A protease complexes. DNA encoding the recombinant HCV NS3/4A protease complex (amino acids 1027 to 1711) for these strains were manipulated as described by P. Gallinari et al. (see Gallinari P, Paolini C, Brennan D, Nardi C, Steinkuhler C, De Francesco R. Biochemistry. 38(17):5620-32, (1999)). Briefly, a three-lysine solubilizing tail was added at the 3′-end of the NS4A coding region. The cysteine in the P1 position of the NS4A-NS4B cleavage site (amino acid 1711) was changed to a glycine to avoid the proteolytic cleavage of the lysine tag. Furthermore, a cysteine to serine mutation was introduced by PCR at amino acid position 1454 to prevent the autolytic cleavage in the NS3 helicase domain. The variant DNA fragment was cloned in the pET21b bacterial expression vector (Novagen) and the NS3/4A complex was expressed in Escherichia coli strain BL21 (DE3) (Invitrogen) following the protocol described by P. Gallinari et al. (see Gallinari P, Brennan D, Nardi C, Brunetti M, Tomei L, Steinkuhler C, De Francesco R., J Virol. 72(8):6758-69 (1998)) with modifications. Briefly, the NS3/4A protease complex expression was induced with 0.5 mM Isopropyl β-D-1-thiogalactopyranoside (IPTG) for 22 hours (h) at 20° C. A typical fermentation (1 Liter (L)) yielded approximately 10 grams (g) of wet cell paste. The cells were resuspended in lysis buffer (10 mL/g) consisting of 25 mM N-(2-Hydroxyethyl)Piperazine-N′-(2-Ethane Sulfonic acid) (HEPES), pH 7.5, 20% glycerol, 500 mM Sodium Chloride (NaCl), 0.5% Triton X-100, 1 microgram/milliliter (“μg/mL”) lysozyme, 5 mM Magnesium Chloride (MgCl2), 1 μg/ml Dnasel, 5 mM β-Mercaptoethanol (βME), Protease inhibitor-Ethylenediamine Tetraacetic acid (EDTA) free (Roche), homogenized and incubated for 20 minutes (min) at 4° C. The homogenate was sonicated and clarified by ultra-centrifugation at 235000 g for 1 h at 4° C. Imidazole was added to the supernatant to a final concentration of 15 mM and the pH adjusted to 8.0. The crude protein extract was loaded on a Nickel-Nitrilotriacetic acid (Ni-NTA) column pre-equilibrated with buffer B (25 mM HEPES, pH 8.0, 20% glycerol, 500 mM NaCl, 0.5% Triton X-100, 15 mM imidazole, 5 mM βME). The sample was loaded at a flow rate of 1 mL/min. The column was washed with 15 column volumes of buffer C (same as buffer B except with 0.2% Triton X-100). The protein was eluted with 5 column volumes of buffer D (same as buffer C except with 200 mM Imidazole). […]

T1 sequence (P27958 1027-1657, change not shown, one chain of several): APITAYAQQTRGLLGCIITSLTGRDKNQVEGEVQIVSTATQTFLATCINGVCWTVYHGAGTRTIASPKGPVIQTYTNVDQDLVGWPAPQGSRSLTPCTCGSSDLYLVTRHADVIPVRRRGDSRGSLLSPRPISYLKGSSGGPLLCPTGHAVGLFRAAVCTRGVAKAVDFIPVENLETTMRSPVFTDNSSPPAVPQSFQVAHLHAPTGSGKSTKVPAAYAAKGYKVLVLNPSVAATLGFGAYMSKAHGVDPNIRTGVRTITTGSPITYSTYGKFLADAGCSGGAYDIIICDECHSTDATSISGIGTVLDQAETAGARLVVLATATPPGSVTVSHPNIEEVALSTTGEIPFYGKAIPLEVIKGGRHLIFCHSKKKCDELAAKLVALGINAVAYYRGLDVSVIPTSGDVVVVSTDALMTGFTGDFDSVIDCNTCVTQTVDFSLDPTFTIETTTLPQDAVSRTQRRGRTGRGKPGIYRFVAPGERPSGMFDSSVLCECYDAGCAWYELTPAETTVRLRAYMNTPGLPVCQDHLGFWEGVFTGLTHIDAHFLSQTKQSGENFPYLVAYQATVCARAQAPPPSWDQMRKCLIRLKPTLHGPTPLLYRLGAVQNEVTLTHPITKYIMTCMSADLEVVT

CC(C)(C)OC(=O)N[C@H]1CCCCC/C=C\[C@@H]2C[C@@]2(C(=O)NS(=O)(=O)C2CC2)NC(=O)[C@@H]2C[C@@H](OC(=O)c3ccc(F)cc3)CN2C1=O [Compound 29, 18-(4-fluorobenzoyloxy)-14-tert-butoxycarbonylamino-4-cyclopropylsulfonylaminocarbonyl-2,15-dioxo-3,16-diazatricyclo-[14.3.0.0^4,6]-nonadec-7-ene]
EC50 [1]: < 100 nM | IC50 [2]: < 100 nM | melting point: 154 to 156 °C

CN(C)S(=O)(=O)NC(=O)[C@@]12C[C@H]1/C=C\CCCCC[C@H](NC(=O)OC(C)(C)C)C(=O)N1C[C@H](OC(=O)c3ccc4c(c3)OCCO4)C[C@H]1C(=O)N2
EC50 [1]: < 100 nM | IC50 [2]: < 100 nM

CC(C)(C)OC(=O)N[C@H]1CCCCC/C=C\[C@@H]2C[C@@]2(C(=O)NS(=O)(=O)C2CC2)NC(=O)[C@@H]2C[C@@H](OC(=O)c3cccc(Cl)c3)CN2C1=O [Compound 22, 18-(3-chorobenzoyloxy)-14-tert-butoxycarbonylamino-4-cyclopropylsulfonylaminocarbonyl-2,15-dioxo-3,16-diazatricyclo-[14.3.0.0^4,6]-nonadec-7-ene]
EC50 [1]: < 100 nM | IC50 [2]: < 100 nM | melting point: 154 to 156 °C

CC(C)(C)OC(=O)N[C@H]1CCCCC/C=C\[C@@H]2C[C@@]2(C(=O)NS(=O)(=O)C2CC2)NC(=O)[C@@H]2C[C@@H](OC(=O)c3ccc4c(c3)OCCO4)CN2C1=O [Compound 25, 18-(2,3-dihydro-1,4-benzodioxine-6-carbonyloxy)-14-tert-butoxycarbonylamino-4-cyclopropylsulfonylaminocarbonyl-2,15-dioxo-3,16-diazatricyclo-[14.3.0.0^4,6]-nonadec-7-ene]
EC50 [1]: < 100 nM | IC50 [2]: < 100 nM | melting point: 199 to 201 °C

Cc1cc(C(=O)O[C@@H]2C[C@H]3C(=O)N[C@]4(C(=O)NS(=O)(=O)C5CC5)C[C@H]4/C=C\CCCCC[C@H](NC(=O)OC(C)(C)C)C(=O)N3C2)n(C)n1 [Compound 35]
EC50 [1]: 100 to 1000 nM | IC50 [2]: < 100 nM | melting point: 149 to 151 °C

CC(C)(C)OC(=O)N[C@H]1CCCCC/C=C\[C@@H]2C[C@@]2(C(=O)O)NC(=O)[C@@H]2C[C@@H](OC(=O)Nc3ccccc3-c3ccccc3)CN2C1=O [Compound 47]
IC50 [2]: > 1000 nM

CC(C)(C)OC(=O)N[C@H]1CN(C2CC2)CCC/C=C\[C@@H]2C[C@@]2(C(=O)NS(=O)(=O)C2CC2)NC(=O)[C@@H]2C[C@@H](OC(=O)N3Cc4cccc(F)c4C3)CN2C1=O [Compound 50]
EC50 [1]: < 100 nM | IC50 [2]: < 100 nM

CC(C)(C)OC(=O)N[C@H]1COCCC/C=C\[C@@H]2C[C@@]2(C(=O)NS(=O)(=O)C2CC2)NC(=O)[C@@H]2C[C@@H](OC(=O)Nc3ccc(-c4ccccc4)cc3)CN2C1=O [Compound 39, 18-(4-biphenylaminocarbonyloxy)-14-tert-butoxycarbonylamino-4-cyclopropylsulfonylaminocarbonyl-2,15-dioxo-3,16-diaza-12-oxatricyclo-[14.3.0.0^4,6]-nonadec-7-ene]
IC50 [2]: > 1000 nM | melting point: 170 to 173 °C

Cc1onc(-c2ccccc2)c1C(=O)O[C@@H]1C[C@H]2C(=O)N[C@]3(C(=O)NS(=O)(=O)C4CC4)C[C@H]3/C=C\CCCCC[C@H](NC(=O)OC(C)(C)C)C(=O)N2C1
EC50 [1]: < 100 nM | IC50 [2]: < 100 nM

CC(C)(C)OC(=O)N[C@H]1CCCCC/C=C\[C@@H]2C[C@@]2(C(=O)NS(=O)(=O)C2CC2)NC(=O)[C@@H]2C[C@@H](OC(=O)c3cccc(F)c3)CN2C1=O
EC50 [1]: < 100 nM | IC50 [2]: < 100 nM

CC(C)(C)OC(=O)N[C@H]1CN(C2CC2)CCC/C=C\[C@@H]2C[C@@]2(C(=O)NS(=O)(=O)C2CC2)NC(=O)[C@@H]2C[C@@H](OC(=O)c3ccc4nccnc4c3)CN2C1=O [Compound 49]
EC50 [1]: < 100 nM | IC50 [2]: < 100 nM

CC(C)(C)OC(=O)N[C@H]1CCCCC/C=C\[C@@H]2C[C@@]2(C(=O)NS(=O)(=O)C2CC2)NC(=O)[C@@H]2C[C@@H](OC(=O)Nc3ccccc3-c3ccccc3)CN2C1=O [Compound 48]
EC50 [1]: < 100 nM | IC50 [2]: < 100 nM

CC(C)(C)OC(=O)N[C@H]1COCCC/C=C\[C@@H]2C[C@@]2(C(=O)NS(=O)(=O)C2CC2)NC(=O)[C@@H]2C[C@@H](OC(=O)N3Cc4cccc(F)c4C3)CN2C1=O [Compound 46, 18-(2-[4-fluoroisoindoline]carbonyloxy)-14-tert-butoxycarbonylamino-4-cyclopropylsulfonylaminocarbonyl-2,15-dioxo-3,16-diaza-12-oxatricyclo-[14.3.0.0^4,6]-nonadec-7-ene]
EC50 [1]: < 100 nM | IC50 [2]: < 100 nM

CC(C)(C)OC(=O)N[C@H]1CCCCC/C=C\[C@@H]2C[C@@]2(C(=O)NS(=O)(=O)C2CC2)NC(=O)[C@@H]2C[C@@H](OC(=O)c3cc4ccccc4o3)CN2C1=O
EC50 [1]: < 100 nM | IC50 [2]: < 100 nM
